Laboratory results from DBAASP.
Values after ≈ are worked out from the molar mass of the structure shown.

Legend:
Assay in all cases: ≥ marks a high value that may be exact or a test limit, other limits are often not marked, values filed in µg/mL are converted to µM
[1] = tested on: Pseudomonas aeruginosa AB93066
[2] = tested on: Staphylococcus aureus ATCC 25923
[3] = tested on: Staphylococcus aureus ATCC 6538
[4] = tested on: Staphylococcus aureus AB94004
[5] = tested on: Escherichia coli ATCC 25922
Escherichia coli AB94012 = tested on: Escherichia coli AB94012
[6] = tested on: Staphylococcus aureus P1381
[7] = tested on: Pseudomonas aeruginosa ATCC 9027
[8] = tested on: Staphylococcus aureus P1374
[9] = tested on: Pseudomonas aeruginosa ATCC 15422
[10] = tested on: Bacillus subtilis CCT 2576
[11] = tested on: Staphylococcus aureus ATCC 29213
[12] = tested on: Escherichia coli ATCC 32218
[13] = tested on: Enterococcus faecalis ATCC 29212
Staphylococcus aureus = tested on: Staphylococcus aureus
[14] = tested on: Enterococcus faecium ATCC 19434
[15] = tested on: Salmonella typhimurium ATCC 19430
[16] = tested on: Trichosporon beigelii KCTC 7707
[17] = tested on: Pseudomonas aeruginosa ATCC 27853
[18] = tested on: Candida albicans ATCC 90028
[19] = tested on: Trichophyton rubrum KCTC 6345
Pseudomonas aeruginosa 1 = tested on: Pseudomonas aeruginosa 1
Pseudomonas aeruginosa 2 = tested on: Pseudomonas aeruginosa 2
[20] = tested on: Candida parapsilosis ATCC 22019
[21] = tested on: Escherichia coli O157:H7 ATCC 43895
[22] = tested on: Klebsiella aerogenes ATCC 13048
[23] = tested on: Klebsiella pneumoniae ATCC 700603
[24] = tested on: Klebsiella pneumoniae ATCC 13883
[25] = tested on: Staphylococcus aureus ATCC 12598
[26] = tested on: Enterococcus faecium ATCC 700221
[27] = tested on: Staphylococcus epidermidis ATCC 12228
[28] = tested on: Acinetobacter baumannii ATCC 19606
[29] = tested on: Staphylococcus aureus ATCC 33591
[30] = tested on: Staphylococcus aureus ATCC 9144
[31] = tested on: Acinetobacter baumannii ATCC BAA-1605
[32] = tested on: Candida albicans KCCM 11282
Escherichia coli = tested on: Escherichia coli
[33] = tested on: Saccharomyces cerevisiae KCCM 11293
Streptococcus iniae = tested on: Streptococcus iniae
Edwardsiella tarda = tested on: Edwardsiella tarda
Miamiensis avidus = tested on: Miamiensis avidus
[34] = tested on: Vibrio tapetis KCTC 12728
Trichophyton rubrum = tested on: Trichophyton rubrum
[35] = tested on: Escherichia coli ATCC 8739
[36] = tested on: Trichophyton mentagrophytes

Question: Which MIC [1] does the source give for CC[C@H](C)[C@H](NC(=O)[C@H](CO)NC(=O)[C@H](CCCCN)NC(=O)[C@@H](NC(=O)CNC(=O)[C@H](CCCCN)NC(=O)[C@H](Cc1c[nH]c2ccccc12)NC(=O)[C@H](CC(C)C)NC(=O)[C@H](CCCCN)NC(=O)CNC(=O)[C@H](CC(C)C)NC(=O)[C@@H](NC(=O)[C@@H](N)Cc1ccccc1)[C@@H](C)CC)C(C)C)C(=O)N[C@@H](Cc1ccccc1)C(N)=O [FILGKLWKGVKSIF] here?
Answer: 30.6 µM (≈ 50 µg/mL)

Question: What about the MIC [2] of the same compound?
Answer: 3.82 µM (≈ 6.25 µg/mL)

Question: What about the MIC [3] of the same compound?
Answer: 3.82 µM (≈ 6.25 µg/mL)

Question: And the MIC [4]?
Answer: 3.82 µM (≈ 6.25 µg/mL)

Question: What about the MIC [5] of the same compound?
Answer: 30.6 µM (≈ 50 µg/mL)

Question: And the MIC (Escherichia coli AB94012)?
Answer: 15.3 µM (≈ 25 µg/mL)

Question: And the MIC [6]?
Answer: 7.64 µM (≈ 12.5 µg/mL)

Question: What about the MIC [7] of the same compound?
Answer: 30.6 µM (≈ 50 µg/mL)

Question: What about the MIC [8] of the same compound?
Answer: 7.64 µM (≈ 12.5 µg/mL)

Question: Which results are given for CC[C@H](C)[C@H](N)C(=O)N[C@@H](CC(N)=O)C(=O)N[C@@H](Cc1c[nH]c2ccccc12)C(=O)N[C@@H](CCCCN)C(=O)N[C@@H](CCCCN)C(=O)N[C@@H](CCSC)C(=O)N[C@@H](C)C(=O)N[C@@H](C)C(=O)N[C@H](C(=O)N[C@@H](C)C(=O)N[C@@H](CC(C)C)C(=O)N[C@@H](CCCCN)C(=O)N[C@@H](CCSC)C(=O)N[C@H](C(N)=O)[C@@H](C)CC)[C@@H](C)O [INWKKMAATALKMI]?
Answer: MIC [9]: 9.64 µM (≈ 15.6 µg/mL); MIC [3]: 1.79 µM (≈ 2.9 µg/mL); MIC [5]: 2.41 µM (≈ 3.9 µg/mL); MIC [10]: 2.16 µM (≈ 3.5 µg/mL)

Question: CC(C)C[C@H](NC(=O)[C@H](C)N)C(=O)N[C@@H](CCCCN)C(=O)N[C@@H](Cc1ccc(O)cc1)C(=O)N[C@@H](CCCN=C(N)N)C(=O)N[C@@H](CC(C)C)C(=O)N[C@@H](Cc1ccccc1)C(=O)N[C@@H](CCCCN)C(=O)N[C@@H](CCCCN)C(=O)N[C@@H](CC(C)C)C(=O)N[C@@H](CCCCN)C(=O)N[C@@H](CCCCN)C(=O)N[C@@H](Cc1ccccc1)C(=O)O [ALKYRLFKKLKKF] was tested. Which MIC [11] did it give?
Answer: 0.594 µM (≈ 1 µg/mL)

Question: And the MIC [12]?
Answer: ≥ 35.6 µM

Question: And the MIC [13]?
Answer: 1.19 µM (≈ 2 µg/mL)

Question: How did the MIC (Staphylococcus aureus) turn out when CC[C@H](C)[C@H](NC(=O)[C@H](CCCN=C(N)N)NC(=O)CNC(=O)[C@@H](NC(=O)[C@@H]1CCCN1C(=O)[C@H](Cc1ccccc1)NC(=O)[C@H](CCC(N)=O)NC(=O)[C@H](CC(C)C)NC(=O)CNC(=O)[C@H](C)N)C(C)C)C(=O)NCC(=O)N[C@@H](CCCN=C(N)N)C(=O)N[C@@H](CC(C)C)C(=O)N[C@@H](CC(C)C)C(=O)N[C@@H](CCCN=C(N)N)C(=O)N[C@@H](CCCCN)C(=O)O [AGLQFPVGRIGRLLRK] was run?
Answer: 12.5 µM (≈ 22.3 µg/mL)

Question: What about the MIC [2] of the same compound?
Answer: 25 µM (≈ 44.5 µg/mL)

Question: What about the MIC [14] of the same compound?
Answer: 12.5 µM (≈ 22.3 µg/mL)

Question: And the MIC [15]?
Answer: 12.5 µM (≈ 22.3 µg/mL)

Question: And the MIC [16]?
Answer: 6.3 µM (≈ 11.2 µg/mL)

Question: What about the MIC [17] of the same compound?
Answer: 12.5 µM (≈ 22.3 µg/mL)

Question: What about the MIC [18] of the same compound?
Answer: 6.3 µM (≈ 11.2 µg/mL)

Question: And the MIC [19]?
Answer: 6.3 µM (≈ 11.2 µg/mL)

Question: And the MIC (Pseudomonas aeruginosa 1)?
Answer: 6.3 µM (≈ 11.2 µg/mL)

Question: What about the MIC (Pseudomonas aeruginosa 2) of the same compound?
Answer: 12.5 µM (≈ 22.3 µg/mL)

Question: What about the MIC [20] of the same compound?
Answer: 12.5 µM (≈ 22.3 µg/mL)

Question: And the MIC [21]?
Answer: 6.3 µM (≈ 11.2 µg/mL)

Question: With CC[C@H](C)[C@H](NC(=O)[C@H](CCCN=C(N)N)NC(=O)[C@H](CCC(N)=O)NC(=O)[C@@H](NC(=O)[C@@H](NC(=O)[C@H](CCCN=C(N)N)NC(=O)[C@H](CCCCN)NC(C)=O)[C@@H](C)CC)C(C)C)C(=O)N[C@@H](CCCCN)C(=O)N[C@@H](CC(=O)O)C(=O)N[C@@H](Cc1ccccc1)C(=O)N[C@@H](CC(C)C)C(=O)N[C@@H](CCCN=C(N)N)C(N)=O [KRIVQRIKDFLR] as the compound, how does the MIC [3] read?
Answer: 163 µM (≈ 263 µg/mL)

Question: What about the MIC [22] of the same compound?
Answer: ≥ 163 µM

Question: What about the MIC [23] of the same compound?
Answer: 163 µM (≈ 263 µg/mL)

Question: And the MIC [24]?
Answer: ≥ 163 µM

Question: And the MIC [25]?
Answer: ≥ 163 µM

Question: And the MIC [26]?
Answer: 10.2 µM (≈ 16.4 µg/mL)

Question: What about the MIC [27] of the same compound?
Answer: ≥ 163 µM

Question: What about the MIC [28] of the same compound?
Answer: ≥ 163 µM

Question: And the MIC [7]?
Answer: 40.7 µM (≈ 65.7 µg/mL)

Question: And the MIC [13]?
Answer: ≥ 81.4 µM

Question: What about the MIC [29] of the same compound?
Answer: ≥ 163 µM

Question: And the MIC [30]?
Answer: ≥ 163 µM

Question: And the MIC [31]?
Answer: ≥ 163 µM

Question: Which MIC [32] does the source give for CC[C@H](C)[C@H](NC(=O)[C@H](C)NC(=O)[C@H](Cc1cnc[nH]1)NC(=O)CNC(=O)[C@@H](NC(=O)CNC(=O)[C@H](Cc1cnc[nH]1)NC(=O)[C@H](CC(C)C)NC(=O)[C@H](CC(C)C)NC(=O)[C@H](CCSC)NC(=O)CNC(=O)[C@H](CC(C)C)NC(=O)[C@@H](N)Cc1ccccc1)C(C)C)C(=O)N[C@@H](Cc1cnc[nH]1)C(=O)NCC(=O)N[C@@H](CC(C)C)C(=O)N[C@H](C(=O)N[C@@H](Cc1cnc[nH]1)C(=O)NCC(=O)N[C@@H](CCCCN)C(=O)N[C@@H](CCC(N)=O)C(=O)N[C@@H](CC(N)=O)C(=O)N[C@H](C(=O)N[C@@H](CCC(=O)O)C(=O)O)C(C)C)[C@@H](C)CC [FLGMLLHGVGHAIHGLIHGKQNVE] here?
Answer: 22.5 µM (≈ 58 µg/mL)

Question: And the MIC (Escherichia coli)?
Answer: 45 µM (≈ 116 µg/mL)

Question: And the MIC [33]?
Answer: 11.2 µM (≈ 29 µg/mL)

Question: And the MIC (Streptococcus iniae)?
Answer: ≥ 45 µM

Question: And the MIC (Edwardsiella tarda)?
Answer: ≥ 90 µM

Question: What about the MIC (Miamiensis avidus) of the same compound?
Answer: 0.4 µM (≈ 1.03 µg/mL)

Question: What about the MIC [34] of the same compound?
Answer: 22.5 µM (≈ 58 µg/mL)

Question: For CSCC[C@H](NC(=O)[C@H](CO)NC(=O)[C@H](C)NC(=O)[C@H](C)NC(=O)[C@H](C)NC(=O)[C@H](C)NC(=O)[C@H](C)NC(=O)[C@H](C)NC(=O)[C@H](C)NC(=O)[C@H](CC(N)=O)NC(=O)[C@H](C)NC(=O)[C@H](C)NC(=O)[C@@H](NC(=O)[C@H](CC(C)C)NC(=O)[C@H](C)NC(=O)[C@H](C)NC(=O)[C@H](C)NC(=O)[C@H](C)NC(=O)[C@H](C)NC(=O)[C@H](C)NC(=O)[C@H](CC(=O)O)NC(=O)[C@H](CO)NC(=O)[C@H](C)NC(=O)[C@@H](NC(=O)[C@@H](N)Cc1cnc[nH]1)[C@@H](C)O)[C@@H](C)O)C(=O)N[C@@H](C)C(=O)O [HTASDAAAAAALTAANAAAAAAASMA], which MIC [2] is on record?
Answer: > 115 µM

Question: And the MIC (Trichophyton rubrum)?
Answer: ≥ 115 µM

Question: And the MIC [35]?
Answer: 30 µM (≈ 66.4 µg/mL)

Question: What about the MIC [36] of the same compound?
Answer: ≥ 115 µM

Question: And the MIC [20]?
Answer: ≥ 115 µM
